# Data taken from patent US20110053900A1, “PROGESTERONE ANTAGONISTS SUCH AS CDB-4124 IN THE TREATMENT OF BREAST CANCER” (Repros Therapeutics inc, priority 2008, published 2011).
# Legend:
# [1] = system: DMBA-induced tumors of the rat mammary gland; test: DMBA-induced breast tumors: tumor number, size and tumor burden at necropsy; type: in vivo; conditions: 10 mg/kg s.c. daily, 28 days
# Description: (§1) To induce breast tumors, Sprague-Dawley female rats were given 10 mg/kg body weight of DMBA at 50 days of age. One group of 14 rats (Group 2) received sesame oil at 50 days of age instead of DMBA to serve as the no-DMBA controls. Animals were weighed and palpated weekly along the milk line for any sign of lesions or swellings. Tumor nodules were noted and measured weekly in two dimensions with calipers. When tumors grew to a size of 10-12 mm in any dimension, the individual animal was randomized into one of 14 groups. Tumors appeared as soon as 39 days after oral gavage and as late as 194 days (latter individual not included in study). The mean latency period for tumor appearance was 106±30 days.
# (§2) Animals were treated for 28 days on the following schedule. Group 1 received daily subcutaneous (s.c.) injections of vehicle (10% ethanol in sesame oil). Group 2 (no DMBA control group-no tumors expected) received vehicle on a schedule decided beforehand to simulate initiation of treatment over a three-month time period. […] Groups 5 through 9 received 20 mg/kg, 10 mg/kg, 2 mg/kg, 1 mg/kg and 0.1 mg/kg of CDB-4124, respectively. Groups 10 through 14 mirrored the treatment given 5 through 9 except that 10 mg/kg of micronized progesterone was also added as a component to compositions for injections.
# (§3) Animals were sacrificed 3-5 days after the end of the 28-day treatment period, blood was drawn, and tumors were removed, weighed, measured, inspected, and portions frozen and/or placed in 10% phosphate buffered formalin for histopathology. The tissue samples were cut and stained with hematoxylin and eosin and were evaluated for histopathological classification.
# The results in Table 3 are those for ACA, PCA and mixed ACA/PCA, but the FA or AF tumors are excluded.
# estrogen receptor (ER) = test: Expression of estrogen receptor in tumors (IHC); type: in vivo, rat; conditions: 10 mg/kg
# Description: (§4) The tumors that were evaluated for proliferation and apoptosis were also assessed for expression of estrogen and progesterone receptors by immunohistochemistry (IHC). The percentage of cells positive for ER and PR was determined and analyzed. Tumors were grouped into four different categories: tumors with 0% of cells expressing ER, tumors with 10% of cells expressing ER, tumors with 15 to 30% of cells expressing ER and tumors with 30-50% of cells expressing ER. In general, untreated tumors consistently expressed ER. Out of 12 tumors analyzed, all 12 expressed ER. Four out of these 12 tumors contained 30-50% ER-positive cells.
# [2] = system: DMBA-induced tumors of the rat mammary gland; test: DMBA-induced breast tumors: tumor number and tumor type at necropsy; type: in vivo; conditions: 10 mg/kg s.c. daily, 28 days
# Description: as §1, §2, §3
# Histologically, four types of tumors were identified (Table 2): adenocarcinomas (ACAs), papillary carcinomas (PCAs), a fibrosarcoma, and fibroadenomas or adenofibromas (FA or AF), the latter two tumor types were not considered to represent frank malignancies.
# [3] = Serum progesterone by ELISA; type: in vivo, rat
# Description: (§5) The animals were assessed three times for their levels of progesterone: initially, when they were about to go on treatment; a second time after 21 days of treatment; and finally after treatment at sacrifice which was 2-4 days after the last s.c. injection. All blood samples were taken by heart puncture; serum was prepared and held frozen at −40° C. The levels of the steroid hormones progesterone, cortisol, and corticosterone were determined by ELISA.
# (§6) The concentrations of steroid hormones were determined three times during the study: before the beginning of treatments, after 21 days of treatment and finally after treatment at sacrifice which was 2-4 days after the last s.c. injection. All samples were taken by heart puncture. Serum was obtained and held frozen at −40° C. The levels of steroid hormones were determined by ELISA.
# [4] = system: rat tumors (proliferation marker Ki-67); test: Tumor proliferation by Ki-67 immunohistochemistry; type: in vivo; conditions: 10 mg/kg
# Text: In order to assess the effects of progestins and anti-progestins on cell proliferation, tissue sections derived from 46 individual rat tumors from treated an control animals were examined by measuring expression of the proliferation marker Ki-67 using the Ki-67 antibody (NeoMarkers, Fremont, Calif.) and immunohistochemistry. Despite the reduction in size of many tumors in Groups 3 and 6 following treatment in Groups 3 and 6 making them too small to be re-cut, 7-12 ACAs from Groups 1, 3, 4, 6 and 11 were re-cut. The results of proliferation experiments, in which proliferation was measured as a percentage of cells expressing Ki-67, are summarized in Table 4: […]
# [5] = Serum corticosterone by ELISA; type: in vivo, rat; conditions: exogenous progesterone 10 mg/kg, after 21 days of treatment, paired groups
# Description: as §5, §6
# Corticosterone is the most abundant glucocorticoid in rats. The effects of the SPRMs on cortisol may be secondary to strong effects on corticosterone. […] The levels of corticosterone were 10-40 times higher than the levels of cortisol. However, almost no difference between groups with respect to mean corticosterone levels was observed. […] There was no statistical difference in levels of corticosterone between animals with tumors and without tumors at either 21-days (p=0.94, t-test, two-tailed) or at sacrifice (p=0.37, t-test, two-tailed).
# [6] = system: progesterone receptor (PR); test: Expression of progesterone receptor in tumors (IHC); type: in vivo, rat; conditions: 10 mg/kg
# Description: as §4
# Untreated tumors consistently expressed PR (12/12 tumors). In general, untreated tumors expressed both receptors, ER and PR, therefore it is possible that many malignant tumors are expressors of these two transcription factors. […] In general, long term treatment with CDB-4124 tends to drive down the level of PR in tumors, whereas progesterone tends to work in the opposite direction. Thus, tumors maintain progesterone responsiveness in the presence of progesterone.
# [7] = system: DMBA-induced tumors of the rat mammary gland; test: DMBA-induced breast tumors: tumor progression (growth pattern); type: in vivo; conditions: 10 mg/kg
# Description: as §1, §2
# In order to evaluate the effects of CDB-4124, RU486 and progesterone on tumor development and progression, growth kinetics and tumor size were monitored during the treatment period. Individual tumors from animals with tumors in the study were measured weekly in two dimensions with calipers. The data is corrected to exclude the non-malignant FA/AF tumor types. Tumors that increased in cross-sectional area by at least 33% over the 28-day inspection period were considered to be growing (FIG. 1, black boxes). Those that decreased by approximately 33% were considered to be regressing (FIG. 1, white boxes). Others were considered to be static (FIG. 1, gray boxes).
# rat tumors = test: Apoptosis in tumors; type: in vivo; conditions: 10 mg/kg
# Description: Apoptosis was evaluated in the same tumors by an apoptosis hybridization kit (Oncor, Gaithersburg, Md.). The cells in apoptosis were evaluated in the peripheral areas of the tumors and far from necrosis. At least 1,000 cells per tumor section were evaluated.
smiles,measurement,setting,value
"CC(=O)[C@H]1CC[C@H]2[C@@H]3CCC4=CC(=O)CC[C@]4(C)[C@H]3CC[C@]12C [Progesterone, progesterone]",Tumor Burden,[1],7.34 g/rat
same,Tumor Weight mean,[1],1.5 g
same,Tumor Weight median,[1],0.5 g
same,Number of Tumors,[1]; FA/AF excluded,49
same,number of cells expressing ER in tumors (in words),estrogen receptor (ER),increased number of cells expressing ER
same,ACA + PCA per rat,[2],4.90
same,ACA per rat,[2],3.3
same,FA/AF no.,[2],3
same,Incidence of tumors (%),[2],(100) %
same,Incidence of tumors (rats with tumors/rats),[2],10/10
same,PCA per rat,[2],1.4
same,ACA + PCA per rat,[2]; listed as progesterone,~5
same,"Serum Progesterone, Before TX (mean)","[3]; 10 mg/kg group, before treatment",51 ng/mL
same,"Serum Progesterone, During TX (mean)","[3]; 10 mg/kg, after 21 days of treatment",55 ng/mL
same,"Serum Progesterone, After TX (mean)","[3]; 10 mg/kg, at sacrifice 2-4 days after the last s.c. injection",54 ng/mL
same,"Proliferating tumor cells by Ki-67, % cells positive",[4],25.7 ± 5.8%
same,effect on serum corticosterone (in words),[5],levels of corticosterone were lowered
same,PR expression in tumors (in words),[6],tended to raise PR expression
same,proportion of tumors regressing,[7]; decrease of cross-sectional area by about 33% over 28 days,8%
same,proportion of the growing tumors,[7]; increase of cross-sectional area by at least 33% over 28 days,80%
same,"Apoptosis, % cells positive",rat tumors,1.28 ± 0.51%
